Earlier results on 2 molecules are cited in patent US7572808B2, “Triazolopyridine cannabinoid receptor 1 antagonists” (Bristol-Myers Squibb Company, priority 2005, dated 2009).

Read-outs that look alike come from different tables or passages of the source.

The conditions of series [1]: chronic administration for two weeks.
The conditions of series [2]: human subjects, 16 week trial period, Phase IIb.

In the case of `Cc1c(C(=O)NN2CCCCC2)nn(-c2ccc(Cl)cc2Cl)c1-c1ccc(I)cc1` [AM-251], the body weight result in series [1] is recorded as “substantial body weight reduction”.
For `Cc1c(C(=O)NN2CCCCC2)nn(-c2ccc(Cl)cc2Cl)c1-c1ccc(Cl)cc1` [SR-141716], in series [2], the body weight entry is “dose-dependently reduced body weight”.
